In patent US8729078B2, “Inhibitors of bruton's tyrosine kinase” (Hoffmann-La Roche Inc., priority 2011, dated 2014):

biological target: Btk (Homo sapiens (Human), UniProt Q06187); assay: Bruton's Tyrosine Kinase (Btk) inhibition assay (FRET BTK); format: biochemical
Sequence (Q06187 whole entry): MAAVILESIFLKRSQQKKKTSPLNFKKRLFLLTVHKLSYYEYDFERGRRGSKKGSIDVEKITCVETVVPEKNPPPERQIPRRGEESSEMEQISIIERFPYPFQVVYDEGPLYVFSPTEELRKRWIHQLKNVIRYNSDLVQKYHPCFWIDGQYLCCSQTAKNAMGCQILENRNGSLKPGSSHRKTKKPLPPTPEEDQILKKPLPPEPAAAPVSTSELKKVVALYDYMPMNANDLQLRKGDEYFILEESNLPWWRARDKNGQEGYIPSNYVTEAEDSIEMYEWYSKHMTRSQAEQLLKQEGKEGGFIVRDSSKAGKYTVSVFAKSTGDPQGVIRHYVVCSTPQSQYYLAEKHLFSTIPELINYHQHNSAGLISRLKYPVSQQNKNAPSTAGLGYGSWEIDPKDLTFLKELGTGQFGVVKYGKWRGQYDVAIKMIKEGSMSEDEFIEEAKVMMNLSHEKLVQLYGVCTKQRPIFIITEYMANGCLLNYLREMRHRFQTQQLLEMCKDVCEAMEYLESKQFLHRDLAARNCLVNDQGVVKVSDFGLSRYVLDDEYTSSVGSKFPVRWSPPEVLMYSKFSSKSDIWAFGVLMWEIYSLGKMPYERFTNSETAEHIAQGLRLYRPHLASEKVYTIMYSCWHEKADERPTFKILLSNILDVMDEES

| IC50 [nM] | Structure (SMILES) |
| --- | --- |
| 0.51 | Cc1cc(Nc2nn(-c3cccc(-n4ncc5cc(C(C)(C)C)ccc5c4=O)c3CO)cc2C(N)=O)nn1C [Compound I-34, 1-[3-(6-tert-Butyl-1-oxo-1H-phthalazin-2-yl)-2-hydroxymethyl-phenyl]-3-(1,5-dimethyl-1H-pyrazol-3-ylamino)-1H-pyrazole-4-carboxylic acid amide] |
| 0.18 | CC(C)(CN1CCC1)Oc1ccc(Nc2nn(-c3cccc(-n4ncc5cc(C(C)(C)C)cc(F)c5c4=O)c3CO)cc2C(N)=O)nc1 [Compound I-24, 3-[5-(2-Azetidin-1-yl-1,1-dimethyl-ethoxy)-pyridin-2-ylamino]-1-[3-(6-tert-butyl-8-fluoro-1-oxo-1H-phthalazin-2-yl)-2-hydroxymethyl-phenyl]-1H-pyrazole-4-carboxylic acid amide] |
| 0.24 | CC(C)(C)c1cc(F)c2c(=O)n(-c3cccc(-n4cc(C(N)=O)c(Nc5ccc(F)cn5)n4)c3CO)ncc2c1 [Compound I-30, 1-[3-(6-tert-Butyl-8-fluoro-1-oxo-1H-phthalazin-2-yl)-2-hydroxymethyl-phenyl]-3-(5-fluoro-pyridin-2-ylamino)-1H-pyrazole-4-carboxylic acid amide] |
| 0.43 | CC(C)(C)c1cc(F)c2c(=O)n(-c3cccc(-n4cc(C(N)=O)c(Nc5cnccn5)n4)c3CO)ncc2c1 [Compound I-29, 1-[3-(6-tert-Butyl-8-fluoro-1-oxo-1H-phthalazin-2-yl)-2-hydroxymethyl-phenyl]-3-(pyrazin-2-ylamino)-1H-pyrazole-4-carboxylic acid amide] |
| 333 | CC(C)(C)c1cc(F)c2c(=O)n(-c3cccc(-n4ccc(C(N)=O)n4)c3CO)ncc2c1 [Compound I-40, 1-[3-(6-tert-Butyl-8-fluoro-1-oxo-1H-phthalazin-2-yl)-2-hydroxymethyl-phenyl]-1H-pyrazole-3-carboxylic acid amide] |
| 1.13 | Cc1ccc(Nc2nn(-c3cccc(-n4ncc5cc(C(C)(C)C)ccc5c4=O)c3CO)cc2C(N)=O)nc1 [Compound I-37, 1-[3-(6-tert-Butyl-1-oxo-1H-phthalazin-2-yl)-2-hydroxymethyl-phenyl]-3-(5-methyl-pyridin-2-ylamino)-1H-pyrazole-4-carboxylic acid amide] |
| 0.09 | CN1CCn2nc(Nc3nn(-c4cccc(-n5ncc6cc(C(C)(C)C)cc(F)c6c5=O)c4CO)cc3C(N)=O)cc2C1 [Compound I-25, 1-[3-(6-tert-Butyl-8-fluoro-1-oxo-1H-phthalazin-2-yl)-2-hydroxymethyl-phenyl]-3-(5-methyl-4,5,6,7-tetrahydro-pyrazolo[1,5-a]pyrazin-2-ylamino)-1H-pyrazole-4-carboxylic acid amide] |
| 268 | CC(C)(C)c1cc(F)c2c(=O)n(-c3cccc(-n4cc(C(N)=O)cn4)c3CO)ncc2c1 [Compound I-41, 1-[3-(6-tert-Butyl-8-fluoro-1-oxo-1H-phthalazin-2-yl)-2-hydroxymethyl-phenyl]-1H-pyrazole-4-carboxylic acid amide] |
| 0.22 | Cn1ccc(Nc2nn(-c3cccc(-n4ncc5cc(C(C)(C)C)cc(F)c5c4=O)c3CO)cc2C(N)=O)n1 [Compound I-28, 1-[3-(6-tert-Butyl-8-fluoro-1-oxo-1H-phthalazin-2-yl)-2-hydroxymethyl-phenyl]-3-(1-methyl-1H-pyrazol-3-ylamino)-1H-pyrazole-4-carboxylic acid amide] |
| 0.29 | CC(C)(C)c1cc(F)c2c(=O)n(-c3cccc(-n4cc(C(N)=O)c(Nc5ccc(Cl)cn5)n4)c3CO)ncc2c1 [Compound I-23, 1-[3-(6-tert-Butyl-8-fluoro-1-oxo-1H-phthalazin-2-yl)-2-hydroxymethyl-phenyl]-3-(5-chloro-pyridin-2-ylamino)-1H-pyrazole-4-carboxylic acid amide] |
| 0.57 | CC(C)(C)c1cc(F)c2c(=O)n(-c3cccc(-n4cc(C(N)=O)c(Nc5ccc(C(F)(F)F)cn5)n4)c3CO)ncc2c1 [Compound I-32, 1-[3-(6-tert-Butyl-8-fluoro-1-oxo-1H-phthalazin-2-yl)-2-hydroxymethyl-phenyl]-3-(5-trifluoromethyl-pyridin-2-ylamino)-1H-pyrazole-4-carboxylic acid amide] |
| 0.29 | Cc1cc(Nc2nn(-c3cccc(-n4ncc5cc(C(C)(C)C)cc(F)c5c4=O)c3CO)cc2C(N)=O)nn1C [Compound I-31, 1-[3-(6-tert-Butyl-8-fluoro-1-oxo-1H-phthalazin-2-yl)-2-hydroxymethyl-phenyl]-3-(1,5-dimethyl-1H-pyrazol-3-ylamino)-1H-pyrazole-4-carboxylic acid amide] |
| 0.36 | CC(C)(C)c1cc(F)c2c(=O)n(-c3cccc(-n4cc(C(N)=O)c(Nc5ccccn5)n4)c3CO)ncc2c1 [Compound I-26, 1-[3-(6-tert-Butyl-8-fluoro-1-oxo-1H-phthalazin-2-yl)-2-hydroxymethyl-phenyl]-3-(pyridin-2-ylamino)-1H-pyrazole-4-carboxylic acid amide] |
| 0.18 | CC(C)(C)c1cc(F)c2c(=O)n(-c3cccc(-n4cc(C(N)=O)c(Nc5ccc(C#N)cn5)n4)c3CO)ncc2c1 [Compound I-39, 1-[3-(6-tert-Butyl-8-fluoro-1-oxo-1H-phthalazin-2-yl)-2-hydroxymethyl-phenyl]-3-(5-cyano-pyridin-2-ylamino)-1H-pyrazole-4-carboxylic acid amide] |
| 0.17 | CC(C)(C)c1cc(F)c2c(=O)n(-c3cccc(-n4cc(C(N)=O)c(Nc5ccc(S(C)(=O)=O)cn5)n4)c3CO)ncc2c1 [Compound I-38, 1-[3-(6-tert-Butyl-8-fluoro-1-oxo-1H-phthalazin-2-yl)-2-hydroxymethyl-phenyl]-3-(5-methanesulfonyl-pyridin-2-ylamino)-1H-pyrazole-4-carboxylic acid amide] |

The remaining lines, values behind:

| Structure (SMILES) | IC50 [nM] |
| --- | --- |
| CCOc1ccc(-c2ccc3c(C(N)=O)cn(-c4cccc(-n5ncc6cc(C(C)(C)C)cc(F)c6c5=O)c4CO)c3n2)cn1 [Compound I-45, 1-[3-(6-tert-Butyl-8-fluoro-1-oxo-1H-phthalazin-2-yl)-2-hydroxymethyl-phenyl]-6-(6-ethoxy-pyridin-3-yl)-1H-pyrrolo[2,3-b]pyridine-3-carboxylic acid amide] | 11 |
| CN(C)Cc1ccc(Nc2nn(-c3cccc(-n4ncc5cc(C(C)(C)C)ccc5c4=O)c3CO)cc2C(N)=O)nc1 [Compound I-55, 1-[3-(6-tert-Butyl-1-oxo-1H-phthalazin-2-yl)-2-hydroxymethyl-phenyl]-3-(5-dimethylaminomethyl-pyridin-2-ylamino)-1H-pyrazole-4-carboxylic acid amide] | 0.39 |
| CC(C)(C)c1ccc2c(=O)n(-c3cccc(-n4cc(C(N)=O)c(Nc5ccccn5)n4)c3CO)ncc2c1 [Compound I-54, 1-[3-(6-tert-Butyl-1-oxo-1H-phthalazin-2-yl)-2-hydroxymethyl-phenyl]-3-(pyridin-2-ylamino)-1H-pyrazole-4-carboxylic acid amide] | 0.95 |
| CN(C)CCNc1ccc2c(C(N)=O)cn(-c3cccc(-n4ncc5cc(C(C)(C)C)cc(F)c5c4=O)c3CO)c2n1 [Compound I-51, 1-[3-(6-tert-Butyl-8-fluoro-1-oxo-1H-phthalazin-2-yl)-2-hydroxymethyl-phenyl]-6-(2-dimethylamino-ethylamino)-1H-pyrrolo[2,3-b]pyridine-3-carboxylic acid amide] | 3560 |
| CC(C)(C)c1cc(F)c2c(=O)n(-c3cccc(-n4cc(C(N)=O)c5ccc(-c6ccccc6F)nc54)c3CO)ncc2c1 [Compound I-46, 1-[3-(6-tert-Butyl-8-fluoro-1-oxo-1H-phthalazin-2-yl)-2-hydroxymethyl-phenyl]-6-(2-fluoro-phenyl)-1H-pyrrolo[2,3-b]pyridine-3-carboxylic acid amide] | 14.3 |
| CN1CCN(c2ccc3c(C(N)=O)cn(-c4cccc(-n5ncc6cc(C(C)(C)C)cc(F)c6c5=O)c4CO)c3n2)CC1 [Compound I-43, 1-[3-(6-tert-Butyl-8-fluoro-1-oxo-1H-phthalazin-2-yl)-2-hydroxymethyl-phenyl]-6-(4-methyl-piperazin-1-yl)-1H-pyrrolo[2,3-b]pyridine-3-carboxylic acid amide] | 2.83 |
| CC(C)(C)c1ccc2c(=O)n(-c3cccc(-n4cc(C(N)=O)c(Nc5cnccn5)n4)c3CO)ncc2c1 [Compound I-36, 1-[3-(6-tert-Butyl-1-oxo-1H-phthalazin-2-yl)-2-hydroxymethyl-phenyl]-3-(pyrazin-2-ylamino)-1H-pyrazole-4-carboxylic acid amide] | 0.83 |
| CC(C)(C)c1cc(F)c2c(=O)n(-c3cccc(-n4cc(C(N)=O)c5cncnc54)c3CO)ncc2c1 [Compound I-42, 7-[3-(6-tert-Butyl-8-fluoro-1-oxo-1H-phthalazin-2-yl)-2-hydroxymethyl-phenyl]-7H-pyrrolo[2,3-d]pyrimidine-5-carboxylic acid amide] | 7.32 |
| CC(C)(C)c1cc(F)c2c(=O)n(-c3cccc(-n4cc(C(N)=O)c5ccc(Br)nc54)c3CO)ncc2c1 [Compound I-48, 6-Bromo-1-[3-(6-tert-butyl-8-fluoro-1-oxo-1H-phthalazin-2-yl)-2-hydroxymethyl-phenyl]-1H-pyrrolo[2,3-b]pyridine-3-carboxylic acid amide] | 7.74 |
| CC(C)(C)c1cc(F)c2c(=O)n(-c3cccc(-n4cc(C(N)=O)c5ccc(-c6ccccc6Cl)nc54)c3CO)ncc2c1 [Compound I-47, 1-[3-(6-tert-Butyl-8-fluoro-1-oxo-1H-phthalazin-2-yl)-2-hydroxymethyl-phenyl]-6-(2-chloro-phenyl)-1H-pyrrolo[2,3-b]pyridine-3-carboxylic acid amide] | 28.4 |
| CC(C)(C)c1cc(F)c2c(=O)n(-c3cccc(-n4cc(C(N)=O)c5ccc(N6CCOCC6)nc54)c3CO)ncc2c1 [Compound I-44, 1-[3-(6-tert-Butyl-8-fluoro-1-oxo-1H-phthalazin-2-yl)-2-hydroxymethyl-phenyl]-6-morpholin-4-yl-1H-pyrrolo[2,3-b]pyridine-3-carboxylic acid amide] | 10.3 |
| Cn1cc(-c2cccc(-n3ccc4cc(C5CC5)cc(F)c4c3=O)c2CO)cc1C(N)=O [Compound I-13, 4-[3-(6-Cyclopropyl-8-fluoro-1-oxo-1H-isoquinolin-2-yl)-2-hydroxymethyl-phenyl]-1-methyl-1H-pyrrole-2-carboxylic acid amide] | 39.4 |
